Columns and labels:
mouse PXR = target: T1, mouse PXR (Mus musculus, UniProt O54915); assay: GAL-mouse PXR luciferase reporter gene assay in transfected CV-1 cells; format: cell-based; conditions: 10 μM; CV-1 cells; FIG. 3(a), FIG. 8(a)
T1 sequence (O54915 104-431): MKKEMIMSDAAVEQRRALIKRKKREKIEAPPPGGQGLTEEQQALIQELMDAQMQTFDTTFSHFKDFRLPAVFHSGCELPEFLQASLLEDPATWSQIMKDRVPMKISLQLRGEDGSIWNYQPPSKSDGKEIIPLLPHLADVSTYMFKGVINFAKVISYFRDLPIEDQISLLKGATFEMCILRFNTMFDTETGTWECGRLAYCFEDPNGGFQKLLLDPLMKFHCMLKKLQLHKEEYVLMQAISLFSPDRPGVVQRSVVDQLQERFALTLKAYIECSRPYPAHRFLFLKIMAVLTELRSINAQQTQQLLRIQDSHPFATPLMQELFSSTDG
Protocol: CV-1 cells were transiently transfected with a GAL-mouse PXR expression vector, a GAL4 reporter construct, and a β-galactosidase vector as an internal control. Where noted, the bile acid transporter NTCP was added to the transfection to promote the transport of membrane-impermeable bile acids. Transfected cells were exposed to the indicated compounds (10 μM each), and fold activation was determined using luciferase and β-galactosidase enzyme activity assays. […] The transfected CV-1 cells were treated with multiple concentrations of each sterol. Error bars in this figure and subsequent figures represent the standard error of the mean (SEM) from representative experiments.
It is questioned whether β-cholestane-3α, 7α, 12α-triol (Triol) levels were elevated in whole liver extracts from CYP27 −/− mice. To show the level of 5β-cholestane-3α, 7α, 12α-triol in mouse liver extract, wild-type or CYP27 −/−mouse liver tissue (0.5 g) was extracted with 7.5 ml of ethyl acetate/methanol (2:1, vol/vol) along with 5β-cholestane-3β,5α,6β-triol (25 μg) as an internal control for extraction efficiency. […] The extraction was repeated three times, and the organic fraction was pooled and evaporated. To remove the vast excess of cholesterol that interferes with subsequent gas chromatography-mass spectroscopy analysis, the evaporated residue was dissolved in 0.5 ml of chloroform/acetone (35:25, vol/vol) and applied to a Bond Elut SI cartridge (Varian, 500 mg). Cholesterol was removed by washing with 6 ml of chloroform/acetone (35:25, vol/vol), and sterols were eluted with 7 ml of chloroform/acetone/methanol (35:25:20, vol/vol/vol). The sterol fraction was evaporated and dissolved in acetonitrile, and a portion was silylated with N,O-bis(trimethylsilyl)-trifluoroacetamide containing 1% trimethylchlorosilane (Pierce). The silylated material was analyzed by using a Shimadzu model GC-17A gas chromatograph with a QP5000 mass spectral detector and a Hewlett-Packard Ultra 2 (cross-linked-siloxane) column. The injector port was kept at 250° C., interface temperature was kept at 280° C., and oven temperature was kept at 50° C. followed by a gradient of 30° C. min^−1 up to 300° C. The electron impact ionization source was at 70 eV. 5β-cholestane-3α, 7α, 12α-triol levels were determined by comparison to a standard curve. For transfection studies, the sterol fraction was dissolved in DMSO and added to the cell-culture media. containing DMEM with 10% delipidated FBS.

[1] = system: PXR target genes cyp3a11, cyp2c, and oatp2; assay: Northern analysis of PXR target genes in primary mouse hepatocytes; format: cell-based; conditions: 10 μM, 24 h, FIG. 5
Protocol: Primary mouse hepatocytes were treated with compounds (10 μM), and Northern analysis was performed using the probes as described in Example III.
Additionally, a Northern blot analysis of PXR target genes can be used to determine whether or not a molecule or compound is a PXR agonist. […] In this approach, hepatocytes are isolated, cultured in vitro, and exposed to a molecule or compound suspected to be a PXR agonist. Total RNA of the hepatocytes is isolated and subject to Northern blot analysis with probes of PXR target genes' fragments. The PXR target genes have transcriptional regulatory regions that interact with the DNA binding domain of a PXR. When a PXR agonist interacts or binds to the ligand binding domain of a PXR, the DNA binding domain of a PXR interacts with the transcriptional regulatory region of the target genes and activates the expression of the target genes. Consequently, an enhanced expression of target genes is observed in the Northern blot analysis. Commonly used target genes' fragments include cyp3a11, nucleotides from #1,065 to #1,569 of GenBank accession no. X60452; cyp2c, nucleotides from #787 to #1,193 of GenBank accession no. AK008580; and oatp2, nucleotides 2,124-2,486 of GenBank accession no. NM_021471. gapdh, nucleotides from #590 to #1,089 of GenBank accession no. NM_008094, is used as a control since gapdh is not regulated by the activation of a PXR. […]

CC(=O)[C@H]1[C@H](C#N)C[C@H]2[C@@H]3CC=C4C[C@@H](O)CC[C@]4(C)[C@H]3CC[C@@]21C [PCN, pregnenolone-16α-carbonitrile]
activation of GAL-mouse PXR (in words) (mouse PXR): very effective agonist | induction of PXR target genes cyp3a11, cyp2c, oatp2 (in words) [1]: activated expression of the PXR target genes cyp3a11, cyp2c, and oatp2
